Experiments:
[1] = Bubble pressure tensiometry (dynamic surface tension, calculated CMC); assay type: physicochemical; conditions: sub-CMC, CMC and super-CMC concentrations; FIGS. 1-7
Experimental: Dynamic surface tensions of certain formulations were measured using a KRÜSS BP100 BPT Mobile bubble pressure tensiometer. Samples of the solution of Example 7 were tested by adding the test solution to a glass dish and lowering the disposable capillary tip and temperature probe into the solution. The dynamic setting was selected, and the instrument was set to collect 30 data points, the bubble age increasing from about 10 ms to about 30,000 ms.
Bubble tensiometry was used to calculate the Critical Micelle Concentration (CMC) value for each of the solutions.
FIG. 1 presents a comparison of the bubble age to surface tension for RM14A at CMC, sub-CMC, and super-CMC concentrations. FIG. 2 presents a comparison of the bubble age to surface tension for RM14B at CMC, sub-CMC, and super-CMC concentrations. FIG. 3 presents a comparison of the bubble age to surface tension for RM14C at CMC, sub-CMC, and super-CMC concentrations. FIG. 4 presents a comparison of the bubble age to surface tension for RM12A, RM13A, RM14A, and RM15A at super-CMC concentrations. FIG. 5 presents a comparison of the bubble age to surface tension for RM12A, RM13A, RM14A, and RM15A at CMC concentrations. FIG. 6 presents a comparison of the bubble age to surface tension for RM12A, RM13A, RM14A, and RM15A at CMC concentrations. FIG. 7 presents a comparison of bubble age to surface tension for RM12A, RM13A, RM14A, and RM15A at sub-CMC concentrations.

[2] = test system: Candida albicans; test: ASTM E2315-16 Time-Kill Procedure; assay type: cell-based; conditions: for Log Reduction: 30 seconds; for log reduction: 10 minutes
Experimental: (§1) Select compounds were tested for antimicrobial activity using ASTM method […]-16 (Standard Guide for Assessment of Antimicrobial Activity using a Time-Kill Procedure). Six microbes were tested: Candida albicans, Staphylococcus aureus, Staphylococcus epidermidis. Escherichia coli, Salmonella abony, and Listeria monocytogenes. Four chlorhexidine salts were tested: chlorhexidine di-α-glucoheptonate (Sample G), chlorhexidine di-β73-glucoheptonate (Sample H), chlorhexidine digluconate (Sample I), and chlorhexidine diacetate (Sample P). Both chlorhexidine diglucoheptonate salts were prepared at a 2:1 molar ratio of glucoheptonic acid to chlorhexidine. Dilutions of each salt were prepared using sterile water (20-30 ppm hardness), to achieve the desired wt. % concentration. Two glucoheptonic acids were evaluated for antimicrobial activity against the same six microbes as Example 13. Sample L was α-glucoheptonic acid. Sample M was β73-glucoheptonic acid. Benzalkonium salts were also tested using the same procedure as set forth in Example 13. The samples were benzalkonium chloride (C12-C16) (Sample C), benzalkonium chloride (C12-C14) (Sample D), benzalkonium chloride in combination with a stoichiometric amount of α-glucoheptonate (Sample F), and benzalkonium chloride in combination with a molar excess of α-glucoheptonate (Sample N). Sample F was prepared by mixing and extensively heating a stoichiometric quantity (1:1) of sodium α-glucoheptonate with benzalkonium chloride, typified by the C12-14 alkyl chain. Sample N was prepared by simply blending benzalkonium chloride, typified by the C12-16 chain, with a molar excess of sodium α-glucoheptonate (1.6:1). Both Samples F and N contain sodium chloride.

[3] = test system: Staphylococcus aureus; test: ASTM E2315-16 Time-Kill Procedure; assay type: cell-based; conditions: for Log Reduction: 30 seconds; for log reduction: 10 minutes
Experimental: as §1

[4] = test system: Staphylococcus epidermidis; test: ASTM E2315-16 Time-Kill Procedure; assay type: cell-based; conditions: for Log Reduction: 30 seconds; for log reduction: 10 minutes
Experimental: as §1

[5] = test system: Escherichia coli; test: ASTM E2315-16 Time-Kill Procedure; assay type: cell-based; conditions: for Log Reduction: 30 seconds; for log reduction: 10 minutes
Experimental: as §1, with “concentration.” for “concentration. Two glucoheptonic acids were evaluated for antimicrobial activity against the same six microbes as Example 13. Sample L was α-glucoheptonic acid. Sample M was β73-glucoheptonic acid.”

[6] = test system: Listeria monocytogenes; test: ASTM E2315-16 Time-Kill Procedure; assay type: cell-based; conditions: for Log Reduction: 30 seconds; for log reduction: 10 minutes
Experimental: as §1, with “concentration.” for “concentration. Two glucoheptonic acids were evaluated for antimicrobial activity against the same six microbes as Example 13. Sample L was α-glucoheptonic acid. Sample M was β73-glucoheptonic acid.”

[7] = test system: Salmonella abony; test: ASTM E2315-16 Time-Kill Procedure; assay type: cell-based; conditions: for Log Reduction: 30 seconds; for log reduction: 10 minutes
Experimental: as §1, with “concentration.” for “concentration. Two glucoheptonic acids were evaluated for antimicrobial activity against the same six microbes as Example 13. Sample L was α-glucoheptonic acid. Sample M was β73-glucoheptonic acid.”

[8] = test system: all microbes (Candida albicans, Staphylococcus aureus, Staphylococcus epidermidis, Escherichia coli, Salmonella abony, Listeria monocytogenes); test: ASTM E2315-16 Time-Kill Procedure, average across all microbes; assay type: cell-based; conditions: for Log Reduction, Average, all microbes: 30 seconds; for log reduction, Average, all microbes: 10 minutes
Experimental: Select compounds were tested for antimicrobial activity using ASTM method […]-16 (Standard Guide for Assessment of Antimicrobial Activity using a Time-Kill Procedure). Six microbes were tested: Candida albicans, Staphylococcus aureus, Staphylococcus epidermidis. Escherichia coli, Salmonella abony, and Listeria monocytogenes. Four chlorhexidine salts were tested: chlorhexidine di-α-glucoheptonate (Sample G), chlorhexidine di-β73-glucoheptonate (Sample H), chlorhexidine digluconate (Sample I), and chlorhexidine diacetate (Sample P). Both chlorhexidine diglucoheptonate salts were prepared at a 2:1 molar ratio of glucoheptonic acid to chlorhexidine. Dilutions of each salt were prepared using sterile water (20-30 ppm hardness), to achieve the desired wt. % concentration. Samples G, H, I, and P were also tested at a concentration of 0.60 wt % active and evaluated for the average Log Reduction in microbial population at 10 minutes, across all microbes. A further test was conducted at a concentration of 1.0 wt % active and evaluated for the average Log Reduction in microbial population at 10 minutes, across all microbes. Benzalkonium salts were also tested using the same procedure as set forth in Example 13. The samples were benzalkonium chloride (C12-C16) (Sample C), benzalkonium chloride (C12-C14) (Sample D), benzalkonium chloride in combination with a stoichiometric amount of α-glucoheptonate (Sample F), and benzalkonium chloride in combination with a molar excess of α-glucoheptonate (Sample N). Sample F was prepared by mixing and extensively heating a stoichiometric quantity (1:1) of sodium α-glucoheptonate with benzalkonium chloride, typified by the C12-14 alkyl chain. Sample N was prepared by simply blending benzalkonium chloride, typified by the C12-16 chain, with a molar excess of sodium α-glucoheptonate (1.6:1). Both Samples F and N contain sodium chloride. A further antimicrobial test was conducted to determine the log reduction at 10 minutes. Samples C, D, F, and N are as defined above.

For `N=C(NCCCCCCNC(=N)NC(=N)Nc1ccc(Cl)cc1)NC(=N)Nc1ccc(Cl)cc1.O=C(O)C(O)C(O)C(O)C(O)C(O)CO.O=C(O)C(O)C(O)C(O)C(O)C(O)CO` [RM15, chlorhexidine di-β81-glucoheptonate], the “surface tension versus bubble age (rate and magnitude of reduction)” value [1] was “fall more rapidly and to a lower value than either the di-α-glucoheptonate or the comparative digluconate salt”.

With “benzalkonium chloride (C12-C14) [Sample D]” the “Log Reduction” value ([2]; 0.10%) was 3.65, the “Log Reduction” value ([2]; 0.25%) was 3.75 and the “Log Reduction” value ([2]; 0.50%) was 4.51. The log reduction ([2]; 0.10%) was 4.84, the log reduction ([2]; 0.25%) was 5.55 and the log reduction ([2]; 0.50%) was 5.77. The “Log Reduction” value ([3]; 0.10%) was 3.59, the “Log Reduction” value ([3]; 0.25%) was 3.97 and the “Log Reduction” value ([3]; 0.50%) was 4.19. For the same molecule, the log reduction ([3]; 0.10%) was 5.37, the log reduction ([3]; 0.25%) was 5.67 and the log reduction ([3]; 0.50%) was 5.97. For the same molecule, the “Log Reduction” value ([4]; 0.10%) was 3.39, the “Log Reduction” value ([4]; 0.25%) was 3.47 and the “Log Reduction” value ([4]; 0.50%) was 3.75. It also gave a log reduction ([4]; 0.10%) of 4.47, a log reduction ([4]; 0.25%) of 4.98 and a log reduction ([4]; 0.50%) of 5.05. For the same molecule, the “Log Reduction” value ([5]; 0.10%) was 2.87, the “Log Reduction” value ([5]; 0.25%) was 3.17 and the “Log Reduction” value ([5]; 0.50%) was 3.29. The log reduction ([5]; 0.10%) was 4.62, the log reduction ([5]; 0.25%) was 4.77 and the log reduction ([5]; 0.50%) was 5.07. For the same molecule, the “Log Reduction” value ([6]; 0.10%) was 3.49, the “Log Reduction” value ([6]; 0.25%) was 3.77 and the “Log Reduction” value ([6]; 0.50%) was 3.91. It also gave a log reduction ([6]; 0.10%) of 5.61, a log reduction ([6]; 0.25%) of 5.97 and a log reduction ([6]; 0.50%) of 6.02. The “Log Reduction” value ([7]; 0.10%) was 2.70, the “Log Reduction” value ([7]; 0.25%) was 2.86 and the “Log Reduction” value ([7]; 0.50%) was 3.04. The log reduction ([7]; 0.10%) was 4.14, the log reduction ([7]; 0.25%) was 4.34 and the log reduction ([7]; 0.50%) was 4.55. For the same molecule, the “Log Reduction, Average, all microbes” value ([8]; 0.10%) was 3.28, the “Log Reduction, Average, all microbes” value ([8]; 0.25%) was 3.50 and the “Log Reduction, Average, all microbes” value ([8]; 0.50%) was 3.78. For the same molecule, the “log reduction, Average, all microbes” value ([8]; 0.10%) was 4.84, the “log reduction, Average, all microbes” value ([8]; 0.25%) was 5.21 and the “log reduction, Average, all microbes” value ([8]; 0.50%) was 5.41.

With “benzalkonium chloride (C12-C16) [Sample C]” the “Log Reduction” value ([2]; 0.10%) was 4.18, the “Log Reduction” value ([2]; 0.25%) was 4.35 and the “Log Reduction” value ([2]; 0.50%) was 4.56. For the same molecule, the log reduction ([2]; 0.10%) was 5.95, the log reduction ([2]; 0.25%) was 6.35 and the log reduction ([2]; 0.50%) was 6.43. The “Log Reduction” value ([3]; 0.10%) was 3.89, the “Log Reduction” value ([3]; 0.25%) was 4.19 and the “Log Reduction” value ([3]; 0.50%) was 4.37. It also gave a log reduction ([3]; 0.10%) of 5.86, a log reduction ([3]; 0.25%) of 6.07 and a log reduction ([3]; 0.50%) of 5.05. The “Log Reduction” value ([4]; 0.10%) was 3.39, the “Log Reduction” value ([4]; 0.25%) was 3.50 and the “Log Reduction” value ([4]; 0.50%) was 3.65. The log reduction ([4]; 0.10%) was 4.79, the log reduction ([4]; 0.25%) was 5.05 and the log reduction ([4]; 0.50%) was 5.05. For the same molecule, the “Log Reduction” value ([5]; 0.10%) was 3.01, the “Log Reduction” value ([5]; 0.25%) was 3.29 and the “Log Reduction” value ([5]; 0.50%) was 3.52. It also gave a log reduction ([5]; 0.10%) of 4.59, a log reduction ([5]; 0.25%) of 5.07 and a log reduction ([5]; 0.50%) of 5.07. For the same molecule, the “Log Reduction” value ([6]; 0.10%) was 3.72, the “Log Reduction” value ([6]; 0.25%) was 3.87 and the “Log Reduction” value ([6]; 0.50%) was 3.99. The log reduction ([6]; 0.10%) was 5.60, the log reduction ([6]; 0.25%) was 5.99 and the log reduction ([6]; 0.50%) was 6.02. The “Log Reduction” value ([7]; 0.10%) was 3.04, the “Log Reduction” value ([7]; 0.25%) was 3.34 and the “Log Reduction” value ([7]; 0.50%) was 3.39. For the same molecule, the log reduction ([7]; 0.10%) was 4.44, the log reduction ([7]; 0.25%) was 4.50 and the log reduction ([7]; 0.50%) was 4.50. For the same molecule, the “Log Reduction, Average, all microbes” value ([8]; 0.10%) was 3.54, the “Log Reduction, Average, all microbes” value ([8]; 0.25%) was 3.76 and the “Log Reduction, Average, all microbes” value ([8]; 0.50%) was 3.91. The “log reduction, Average, all microbes” value ([8]; 0.10%) was 5.21, the “log reduction, Average, all microbes” value ([8]; 0.25%) was 5.51 and the “log reduction, Average, all microbes” value ([8]; 0.50%) was 5.35.

Source: US20240197938A1, “ANTIMICROBIAL COMPOUNDS BASED ON GLUCOHEPTONIC ACIDS AND THEIR SALTS” (HARCROS CHEMICALS, INC., priority 2021, published 2024)
